Reference: US20250205185A1 (COSMED PHARMACEUTICAL CO., LTD., priority 2022, published 2025)

Test: Microscope observation of taurine crystals (Test Example 1)
Assay type: physicochemical
Details: observed with a microscope; for Maximum particle size (length) μm: length = major axis; for Maximum particle size (thickness) μm: thickness = minor axis

Crystalline form | Maximum particle size (length) μm [μm] | Maximum particle size (thickness) μm [μm] | Structure (SMILES)
Massive | 700 | 160 | NCCS(=O)(=O)O [Comparative Example 1, taurine]
Massive | 2000 | 300 | NCCS(=O)(=O)O [Comparative Example 2, taurine]
Massive | 6740 | 1680 | NCCS(=O)(=O)O [Comparative Example 3, taurine, reference compound]
Columnar | 280 | 145 | NCCS(=O)(=O)O [Example 1, taurine]
Columnar | 150 | 80 | NCCS(=O)(=O)O [Example 2, taurine]
Columnar | 150 | 100 | NCCS(=O)(=O)O [Example 3, taurine]
Columnar | 100 | 70 | NCCS(=O)(=O)O [Example 4, taurine]
Needle- | 800 | 55 | NCCS(=O)(=O)O [Example 5, taurine]
Needle- | 250 | 25 | NCCS(=O)(=O)O [Example 6, taurine]
Needle- | 250 | 20 | NCCS(=O)(=O)O [Example 7, taurine]
Needle- | 220 | 30 | NCCS(=O)(=O)O [Example 8, taurine]
Needle- | 150 | 40 | NCCS(=O)(=O)O [Example 9, taurine]
Needle- | 720 | 25 | NCCS(=O)(=O)O [Example 10, taurine]
Needle- | 370 | 20 | NCCS(=O)(=O)O [Example 11, taurine]
